In patent US8933075B2, “Compounds useful as antiviral agents, compositions, and methods of use” (priority 2010, dated 2015):
pEC50: −log10 of the molar value.

Legend:
A/Udorn/72 (H3N2) virus = assay: Plaque assay in MDCK cells: EC50 by reduction of plaque number; format: cell-based, influenza virus; settings: MDCK
pseudoHIV particles = assay: HIV pseudovirus assay in X4 cells (luciferase); format: cell-based, HIV-1; settings: Human immunodeficiency virus 1, read-out: HIV EC50
Protocol: A plasmid coding the HIV-1 genome, deleting the envelope protein gene and with a luciferase gene inserted, and a plasmid coding the envelope protein gene were cotransfected into 293T cells. After 48 hr, the supernatant containing pseudoHlV particles was collected for transducing assay. In 96 well plates, X4 cells were plated and incubated till confluent. The pseudoHlV particles were incubated with various concentrations of inhibitor compounds for one hour in room temperature. The particles were then used for tranducing X4 cells. The transduced X4 cells were lysed after 48 hr and the luciferase activity was measured in a luminometer.

| Compound | pEC50 (A/Udorn/72 (H3N2) virus) | pEC50 (pseudoHIV particles) |
| --- | --- | --- |
| COc1cc(O)cc(-c2ccc(/C=C3\SC(=S)N(C4CC5CCC4C5)C3=O)o2)c1 (centres unmarked) [Compound 17] | > 7.00 | > 7.00 |
| COc1cc(OC)cc(-c2ccc(/C=C3\SC(=S)N(C4CC5CCC4C5)C3=O)o2)c1 (centres unmarked) [Compound 19] | > 7.00 | > 7.00 |
| COc1cc(OC)cc(-c2ccc(/C=C3\SC(=S)N(C4C5CC6CC(C5)CC4C6)C3=O)o2)c1 (centres unmarked) [Compound 20] | > 7.00 | > 7.00 |
| CCOC(=O)COc1cc(-c2ccc(/C=C3\SC(=S)N(C4C5CC6CC(C5)CC4C6)C3=O)o2)ccc1OC (centres unmarked) [Compound 21] | > 7.00 | > 7.00 |
| CCOC(=O)COc1cc(-c2ccc(/C=C3\SC(=S)N(C4CC5CCC4C5)C3=O)o2)ccc1OC (centres unmarked) [Compound 22] | > 7.00 | > 7.00 |
| COc1ccc(-c2ccc(/C=C3\SC(=S)N(C4C5CC6CC(C5)CC4C6)C3=O)o2)cc1O (centres unmarked) [Compound 23] | > 7.00 | > 7.00 |
| CCOC(=O)COc1cc(-c2ccc(/C=C3\SC(=S)N(C4CC5CCC4C5)C3=O)o2)cc(OC)c1OC (centres unmarked) [Compound 29] | > 7.00 | > 7.00 |
| CCOC(=O)COc1cc(-c2ccc(/C=C3\SC(=S)N(C4C5CC6CC(C5)CC4C6)C3=O)o2)cc(OC)c1OC (centres unmarked) [Compound 30] | > 7.00 | > 7.00 |
| COC(=O)c1cc(-c2ccc(/C=C3\SC(=S)N(C4CC5CCC4C5)C3=O)o2)cc(OC)c1OC (centres unmarked) [Compound 31] | > 7.00 | > 7.00 |
| COC(=O)c1cc(-c2ccc(/C=C3\SC(=S)N(C4C5CC6CC(C5)CC4C6)C3=O)o2)cc(OC)c1OC (centres unmarked) [Compound 32] | > 7.00 | > 7.00 |
| COc1ccc(-c2ccc(/C=C3\SC(=S)N(C4C5CC6CC(C5)CC4C6)C3=O)o2)cc1OCC(=O)O (centres unmarked) [Compound 33] | > 7.00 | > 7.00 |
| COc1cc(OCC(=O)O)cc(-c2ccc(/C=C3\SC(=S)N(C4CC5CCC4C5)C3=O)o2)c1 (centres unmarked) [Compound 37] | > 7.00 | > 7.00 |
| COc1cc(OCC(=O)N[C@@H](Cc2ccccc2)C(=O)O)cc(-c2ccc(/C=C3\SC(=S)N(C4CC5CCC4C5)C3=O)o2)c1 (some centres unmarked) [Compound 83] | > 7.00 | > 7.00 |
| COc1cc(OCC(=O)N2CCC[C@H]2C(=O)O)cc(-c2ccc(/C=C3\SC(=S)N(C4CC5CCC4C5)C3=O)o2)c1 (some centres unmarked) [Compound 84] | > 7.00 | > 7.00 |
| COc1ccc(-c2ccc(/C=C3\SC(=S)N(C4CC5CCC4C5)C3=O)o2)cc1C(=O)N[C@@H](Cc1ccc(O)cc1)C(=O)O (some centres unmarked) [Compound 86] | > 7.00 | > 7.00 |
| O=C1/C(=C/c2oc(-c3ccccc3)cc2CO)SC(=S)N1C1C2CC3CC(C2)CC1C3 (centres unmarked) [Compound 92] | > 7.00 | 6.60 to 7.00 |
| COc1cc(OC)cc(-c2cc(CCCO)c(/C=C3\SC(=S)N(C4C5CC6CC(C5)CC4C6)C3=O)o2)c1 (centres unmarked) [Compound 95] | > 7.00 | > 7.00 |
| O=C1/C(=C/c2oc(-c3ccc(Cl)cc3)cc2CCCO)SC(=S)N1C1CC2CCC1C2 (centres unmarked) [Compound 99] | > 7.00 | > 7.00 |
| COc1cc(O)cc(-c2cc(CCCO)c(/C=C3\SC(=S)N(C4CC5CCC4C5)C3=O)o2)c1 (centres unmarked) [Compound 101] | > 7.00 | > 7.00 |
| COc1cc(O)cc(-c2cc(CCCO)c(/C=C3\SC(=S)N(C4C5CC6CC(C5)CC4C6)C3=O)o2)c1 (centres unmarked) [Compound 102] | > 7.00 | > 7.00 |
| O=C1/C(=C/c2oc(-c3ccc(F)cc3)cc2CCCO)SC(=S)N1C1C2CC3CC(C2)CC1C3 (centres unmarked) [Compound 103] | > 7.00 | > 7.00 |
| O=C1/C(=C/c2oc(-c3ccc(F)cc3)cc2CCCO)SC(=S)N1C1CC2CCC1C2 (centres unmarked) [Compound 104] | > 7.00 | > 7.00 |
| COc1cc(OC)cc(-c2cc(CCCCO)c(/C=C3\SC(=S)N(C4CC5CCC4C5)C3=O)o2)c1 (centres unmarked) [Compound 113] | > 7.00 | > 7.00 |
| COc1cc(OC)cc(-c2cc(CCCCO)c(/C=C3\SC(=S)N(C4C5CC6CC(C5)CC4C6)C3=O)o2)c1 (centres unmarked) [Compound 114] | > 7.00 | > 7.00 |
| COc1cc(OC)cc(-c2cc(CCCN)c(/C=C3\SC(=S)N(C4CC5CCC4C5)C3=O)o2)c1 (centres unmarked) [Compound 120] | > 7.00 | > 7.00 |
| COc1cc(OC)cc(-c2cc(CCCN)c(/C=C3\SC(=S)N(C4C5CC6CC(C5)CC4C6)C3=O)o2)c1 (centres unmarked) [Compound 121] | > 7.00 | > 7.00 |
| COc1cc(O)cc(-c2cc(CCCN)c(/C=C3\SC(=S)N(C4CC5CCC4C5)C3=O)o2)c1 (centres unmarked) [Compound 122] | > 7.00 | > 7.00 |
| COc1cc(O)cc(-c2cc(CCCN)c(/C=C3\SC(=S)N(C4C5CC6CC(C5)CC4C6)C3=O)o2)c1 (centres unmarked) [Compound 123] | > 7.00 | > 7.00 |
